Measured values from patent US6737383B1, “Herbicidal oxadiazolidines” (priority 1999, dated 2004).

Assays:
giant foxtail = experiment: Test B pre/postemergence giant foxtail; type: in vivo, Setaria faberii; settings: Preemergence, scale of 0 to 10 where 0 is no effect and 10 is complete control
Method in brief: (§1)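 Test chemicals in a non-phytotoxic solvent mixture with surfactant were sprayed preemergence onto planted seeds and postemergence onto plants 2 to 18 cm tall (1- to 4-leaf stage). After twelve to sixteen days in a greenhouse, injury was visually rated against untreated controls from 0 (no effect) to 10 (complete control).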

morningglory = experiment: Test B pre/postemergence morningglory; type: in vivo, Ipomoea hederacea; settings: Preemergence, scale of 0 to 10 where 0 is no effect and 10 is complete control
Method in brief: as §1

bamyardgrass = experiment: Test B flood test barnyardgrass; type: in vivo, Echinochloa crus-galli
Method in brief: (§2)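 Plants were grown to the 2-leaf stage before treatment with test chemical, then held in a greenhouse for twelve to sixteen days. Injury was visually rated against untreated controls on a 0–10 scale, where 0 is no effect and 10 is complete control.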

purple nutsedge = experiment: Test B pre/postemergence purple nutsedge; type: in vivo, Cyperus rotundus; settings: Preemergence, scale of 0 to 10 where 0 is no effect and 10 is complete control
Method in brief: as §1

corn = experiment: Test B pre/postemergence corn; type: in vivo, Zea mays; settings: Preemergence
Method in brief: as §1

rice = experiment: Test B flood test rice; type: in vivo, Oryza sativa
Method in brief: as §2

rape = experiment: Test B pre/postemergence rape; type: in vivo, Brassica napus; settings: Preemergence, scale of 0 to 10 where 0 is no effect and 10 is complete control
Method in brief: as §1

velvetleaf = experiment: Test B pre/postemergence velvetleaf; type: in vivo, Abutilon theophrasti; settings: Preemergence, scale of 0 to 10 where 0 is no effect and 10 is complete control
Method in brief: as §1

pigweed = experiment: Test B pre/postemergence pigweed; type: in vivo, Amaranthus retroflexus; settings: Preemergence, scale of 0 to 10 where 0 is no effect and 10 is complete control
Method in brief: as §1

smallflower flatsedge = experiment: Test B flood test smallflower flatsedge; type: in vivo, Cyperus difformis
Method in brief: as §2

duck salad = experiment: Test B flood test duck salad; type: in vivo, Heteranthera limosa
Method in brief: as §2

sugar beet = experiment: Test B pre/postemergence sugar beet; type: in vivo, Beta vulgaris; settings: Preemergence, scale of 0 to 10 where 0 is no effect and 10 is complete control
Method in brief: as §1

bedstraw = experiment: Test B pre/postemergence bedstraw; type: in vivo, Galium aparine; settings: Preemergence
Method in brief: as §1

cocklebur = experiment: Test B pre/postemergence cocklebur; type: in vivo, Xanthium strumarium; settings: Preemergence
Method in brief: as §1

wild oat = experiment: Test B pre/postemergence wild oat; type: in vivo, Avena fatua; settings: Preemergence, Rate 125 g/ha; scale of 0 to 10 where 0 is no effect and 10 is complete control
Method in brief: as §1

soybean = experiment: Test B pre/postemergence soybean; type: in vivo, Glycine max; settings: Preemergence, scale of 0 to 10 where 0 is no effect and 10 is complete control
Method in brief: as §1

surinam grass = experiment: Test B pre/postemergence surinam grass; type: in vivo, Brachiaria decumbens; settings: Preemergence
Method in brief: as §1

blackgrass = experiment: Test B pre/postemergence blackgrass; type: in vivo, Alopecurus myosuroides; settings: Preemergence
Method in brief: as §1

crabgrass = experiment: Test B pre/postemergence crabgrass; type: in vivo, Digitaria sanguinalis; settings: Preemergence
Method in brief: as §1

wheat = experiment: Test B pre/postemergence wheat; type: in vivo, Triticum aestivum; settings: Preemergence, scale of 0 to 10 where 0 is no effect and 10 is complete control
Method in brief: as §1

[1] = Rate 62 g/ha, flood test species, Pre-emergence, visual evaluation after twelve to sixteen days
[2] = Rate 125 g/ha, under heading Pre-emergence, flood test species, visual evaluation after twelve to sixteen days
[3] = Rate 250 g/ha, Pre-emergence (flood test species), scale 0 to 10, 0 is no effect, 10 is complete control
[4] = Rate 500 g/ha, Pre-emergence section of Table B, 0 to 10 scale (0 no effect, 10 complete control)
[5] = Rate 62 g/ha, scale of 0 to 10 where 0 is no effect and 10 is complete control
[6] = Rate 125 g/ha, scale of 0 to 10 where 0 is no effect and 10 is complete control
[7] = Rate 250 g/ha, scale 0 to 10 (0 no effect, 10 complete control)
[8] = Rate 500 g/ha, scale of 0 to 10 where 0 is no effect and 10 is complete control

CC(C)N(C(=O)n1oc(=O)n(C(C)C2CCC2)c1=O)c1ccc(F)cc1F (stereo not drawn) [Compound 702]
Giant foxtail plant response rating (giant foxtail; Rate 62 g/ha): 10
Plant response rating, Giant foxtail (giant foxtail; Rate 125 g/ha): 10
Morningglory plant response rating (morningglory; Rate 62 g/ha): 0
Plant response rating, Morningglory (morningglory; Rate 125 g/ha): 0
Plant response rating, Barnyardgrass (0 to 10 scale, 0 is no effect, 10 is complete control) (bamyardgrass; [1]): 0
Barnyardgrass plant response rating (0 to 10 scale, 0 is no effect, 10 is complete control) (bamyardgrass; [2]): 0
Barnyardgrass plant response rating (bamyardgrass; [3]): 0
Barnyardgrass plant response rating (bamyardgrass; [4]): 0
Nutsedge plant response rating (purple nutsedge; Rate 62 g/ha): 0
Plant response rating, Nutsedge (purple nutsedge; Rate 125 g/ha): 0
Corn plant response rating (corn; [5]): 0
Plant response rating, Corn (corn; [6]): 0
Plant response rating, Corn (corn; [7]): 0
Plant response rating, Rice (0 to 10 scale, 0 is no effect, 10 is complete control) (rice; [1]): 0
Rice plant response rating (0 to 10 scale, 0 is no effect, 10 is complete control) (rice; [2]): 0
Rice plant response rating (rice; [3]): 0
Rice plant response rating (rice; [4]): 0
Rape plant response rating (rape; Rate 62 g/ha): 0
Plant response rating, Rape (rape; Rate 125 g/ha): 0
Velvetleaf plant response rating (velvetleaf; Rate 62 g/ha): 0
Plant response rating, Velvetleaf (velvetleaf; Rate 125 g/ha): 0
Redroot pigweed plant response rating (pigweed; Rate 62 g/ha): 2
Plant response rating, Redroot pigweed (pigweed; Rate 125 g/ha): 5
Plant response rating, S. Flatsedge (0 to 10 scale, 0 is no effect, 10 is complete control) (smallflower flatsedge; [1]): 0
S. Flatsedge plant response rating (0 to 10 scale, 0 is no effect, 10 is complete control) (smallflower flatsedge; [2]): 0
S. Flatsedge plant response rating (smallflower flatsedge; [3]): 0
S. Flatsedge plant response rating (smallflower flatsedge; [4]): 0
Plant response rating, Ducksalad (0 to 10 scale, 0 is no effect, 10 is complete control) (duck salad; [1]): 0
Ducksalad plant response rating (0 to 10 scale, 0 is no effect, 10 is complete control) (duck salad; [2]): 0
Ducksalad plant response rating (duck salad; [3]): 0
Ducksalad plant response rating (duck salad; [4]): 0
Sugarbeets plant response rating (sugar beet; Rate 62 g/ha): 0
Plant response rating, Sugarbeets (sugar beet; Rate 125 g/ha): 0
Bedstraw plant response rating (bedstraw; [5]): 0
Plant response rating, Bedstraw (bedstraw; [6]): 0
Plant response rating, Bedstraw (bedstraw; [7]): 0
Plant response rating, Bedstraw (bedstraw; [8]): 0
Cocklebur plant response rating (cocklebur; [5]): 0
Plant response rating, Cocklebur (cocklebur; [6]): 0
Plant response rating, Cocklebur (cocklebur; [7]): 0
Plant response rating, Cocklebur (cocklebur; [8]): 0
Plant response rating, Wild oats (wild oat): 0
Soybean plant response rating (soybean; Rate 62 g/ha): 0
Plant response rating, Soybean (soybean; Rate 125 g/ha): 0
B. signalgrass plant response rating (surinam grass; [5]): 0
Plant response rating, B. signalgrass (surinam grass; [6]): 2
Plant response rating, B. signalgrass (surinam grass; [7]): 2
Plant response rating, B. signalgrass (surinam grass; [8]): 8
Blackgrass plant response rating (blackgrass; [5]): 2
Plant response rating, Blackgrass (blackgrass; [6]): 2
Plant response rating, Blackgrass (blackgrass; [7]): 9
Plant response rating, Blackgrass (blackgrass; [8]): 10
Crabgrass plant response rating (crabgrass; [5]): 9
Plant response rating, Crabgrass (crabgrass; [6]): 10
Plant response rating, Crabgrass (crabgrass; [7]): 10
Wheat plant response rating (wheat; Rate 62 g/ha): 0
Plant response rating, Wheat (wheat; Rate 125 g/ha): 0
